≈ marks a conversion by molar mass, not a printed value. Structures can show the parent of a compound that is named as a salt. Where two headings read alike, the source gives them in different places.
Columns and labels:
β2-adrenoceptor = β2-adrenoceptor (Homo sapiens, UniProt P07550); conditions: cited from earlier work
[1] = Solubility of indacaterol maleate in water and in maleate buffer; assay type: physicochemical
Procedure: In Lot II, the concentration of indacaterol in Feedline A was 18% w/w and the concentration in the spray-blended bulk powder was just 4.1% w/w, as the remaining spray dried particles from Feedlines B and C contained no API.
Lot IV is formulated like Lot II except 20 mM sodium maleate (pH 5.5) was added to Feedline A. Sodium maleate was added to decrease the indacaterol solubility in water to about, 0.01 mg/ml (common ion effect). In this case, spray-blending reduced the dissolved indacaterol in the feedstock from about, 8.0% to 0.1%.
Estimated % Dissolved was calculated based on the feedstock compositions according to equation 1. The solubility of indacaterol in water is 0.2 mg/ml, and 0.01 mg/ml in 20 mM maleate buffer. The decreased solubility in maleate buffer is the result of the shift in the equilibrium towards precipitation of indacaterol maleate which occurs as a result of the addition of a common ion. The impact of spray-blending on the dissolved fraction is clearly evident by comparing Lots I and VI. In the spray-blended Lot I, the total drug loading is 1.4%, yet the dissolved fraction is just 4.9%. In contrast, for the single feedstock Lot VI, the drug content is actually higher (2%), yet the dissolved fraction is nearly 15%.

Sequence of β2-adrenoceptor (P07550 whole entry, species assumed): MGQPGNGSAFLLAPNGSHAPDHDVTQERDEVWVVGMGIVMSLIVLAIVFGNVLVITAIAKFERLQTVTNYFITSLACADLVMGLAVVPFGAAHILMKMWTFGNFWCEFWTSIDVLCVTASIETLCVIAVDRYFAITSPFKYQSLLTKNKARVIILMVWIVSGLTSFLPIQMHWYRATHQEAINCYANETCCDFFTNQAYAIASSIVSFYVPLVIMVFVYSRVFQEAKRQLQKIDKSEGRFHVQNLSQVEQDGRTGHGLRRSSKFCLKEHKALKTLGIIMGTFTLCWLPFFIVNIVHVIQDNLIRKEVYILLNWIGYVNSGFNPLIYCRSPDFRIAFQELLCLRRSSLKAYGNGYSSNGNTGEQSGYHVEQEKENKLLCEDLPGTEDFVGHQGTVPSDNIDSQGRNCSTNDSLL

SMILES	duration of action (β2-adrenoceptor)	onset of action (β2-adrenoceptor)	solubility in 20 mM maleate buffer ([1]; 20 mM sodium maleate (pH 5.5), common ion effect) [µg/mL]	solubility ([1]; 20 mM sodium maleate buffer, pH 5.5, aqueous buffer, 20 mM sodium maleate (pH 5.5), common ion effect, read-out: solubility in 20 mM maleate buffer) [µg/mL]	solubility ([1]; water, read-out: solubility in water) [µg/mL]
CCc1cc2c(cc1CC)CC(NC[C@H](O)c1ccc(O)c3[nH]c(=O)ccc13)C2 [indacaterol, (R)-5-[2-(5,6-diethyl-indan-2-ylamino)-1-hydroxyethyl]-8-hydroxy-1H-quinolin-2-one]	over 24 hours	about 10 minutes	10 (≈ 25.5 µM)	~10 (≈ 25.5 µM)	
CCc1cc2c(cc1CC)CC(NC[C@H](O)c1ccc(O)c3[nH]c(=O)ccc13)C2 [indacaterol maleate, (R)-5-[2-(5,6-diethyl-indan-2-ylamino)-1-hydroxyethyl]-8-hydroxy-1H-quinolin-2-one]					200
